We go through 13 molecules from publication PMC4141209 (FEBS Open Bio, 2014).

Read-outs that look alike come from different tables or passages of the source.

Assay [1] relates to TlLhpI. Conditions: NAD+ 1.5 mM, Bis-tris propane pH 10.5, 50 °C.
For assay [2], the system named is TlLhpI. The assay is described as follows: NAD+ reduction at […] nm. The assay is classed as biochemical, Thermococcus litoralis.
Assay [3] deals with TlLhpI. The assay is described as follows: NADH oxidation at […] nm. Format: biochemical, Thermococcus litoralis. Conditions: NADH 0.15 mM, NH4Cl 700 mM, Tris-HCl pH 8.0, 50 °C.
Assay [4] has as its system TlLhpI. The assay is described as follows: NADH oxidation at […] nm. Format: biochemical, Thermococcus litoralis. Conditions: NADH 0.15 mM, potassium phosphate pH 6.0, 50 °C.
For assay [5], the system named is TlLhpI. Conditions: NADH 0.15 mM, potassium phosphate pH 6.0, 50 °C.
Assay [6] has as its system TlLhpI. Conditions: NADH 0.15 mM, NH4Cl 700 mM, Tris-HCl pH 8.0, 50 °C.
The mark [7] stands for this setting: NAD+ 1.5 mM, Bis-tris propane pH 10.5, 50 °C.
The mark [8] stands for this setting: NAD+-dependent oxidation, 50 °C.

The term Km denotes the substrate concentration at which the rate is half of its maximum. Regarding `CCC[C@H](N)C(=O)O` [L-2-Aminovalerate], the Km in the assay with TlLhpI [1] was found to be 2130 ± 300 µM; in the assay with TlLhpI [2] (setting [7]) it was 306 ± 9 µM. As to `CN[C@@H](C)C(=O)O` [N-Methyl-L-alanine], the Km in the assay with TlLhpI [2] (setting [8]) amounted to 406 ± 44 µM. As to `CC(C)CC(=O)C(=O)O` [4-Methyl-2-oxovalerate], in the assay with TlLhpI [3], the Km is 2520 ± 450 µM. Consider `O=C(O)C1=NCCC1` [Pyr2C, Δ^1-pyrroline-2-carboxylate], for which the Km was found to be 944 ± 90 µM with TlLhpI [4] and 2770 ± 440 µM in the assay on TlLhpI [5].

Turning to `CC[C@H](N)C(=O)O` [L-2-Aminobutyrate], the Michaelis-Menten constant (Km) in the assay on TlLhpI [2] (setting [7]) is 6000 ± 290 µM.

Turning to `CCCC(=O)C(=O)O` [2-Oxovalerate], the Km with TlLhpI [3] was found to be 969 ± 93 µM; with TlLhpI [6], 1820 ± 140 µM.

As for `CC(=O)C(=O)O` [Pyruvate], the figures for the Km in the assay with TlLhpI [3] and in the assay on TlLhpI [6] were 9370 ± 230 µM and 62000 ± 12200 µM, respectively. For the molecule `O=C(O)[C@@H]1CCCCN1` [L-Pipecolate], the Km in the assay with TlLhpI [2] (setting [8]) was determined as 608 ± 115 µM. `C[C@H](N)C(=O)O` [L-Alanine]: the Km with TlLhpI [1] was 36900 ± 900 µM; with TlLhpI [2] (setting [7]), 18200 ± 5000 µM.

Consider `O=C(O)CC(=O)C(=O)O` [Oxalacetate], for which the Km in the assay with TlLhpI [3] was found to be 8860 ± 910 µM. For the molecule `CCC(=O)C(=O)O` [2-Oxobutyrate], the Km with TlLhpI [3] stood at 701 ± 20 µM. Turning to `CC(C)C[C@H](N)C(=O)O` [L-Leucine], the Km in the assay on TlLhpI [2] (setting [7]) was determined as 1320 ± 100 µM. In the case of `O=C(O)[C@@H]1CCCN1` [L-Proline], the Km in the assay on TlLhpI [1] turned out to be 444 ± 8 µM; in the assay with TlLhpI [2] (setting [7]) it was 1120 ± 120 µM.
